According to patent US20170209483A1, “ANTIBIOTIC ACTIVITY OF IRON SEQUESTERING POLYMERS” (UNIVERSITY OF KANSAS, priority 2014, published 2017):
Counter-ions that a name gives are not always drawn.

Legend:
P. aeruginosa = conditions: concentrations used reflect reported MICs; cited from earlier work
[1] = system: Pseudomonas aeruginosa strain PA01 wild type; assay: Comparison to traditional iron chelating agents, bacterial counts; format: cell-based; conditions: EDTA or HBED 500 μM, PAI-DHBA 20 mg, added at inoculation; 5, 6 and 12 h
[2] = in vivo; cited from earlier work
[3] = system: Pseudomonas aeruginosa strain PA01 wild type; assay: PAI-DHBA as an adjuvant to conventional antibiotics on bacterial growth; format: cell-based; conditions: Ciprofloxacin 1 μg/mL added at 5 h, read at 9 h, versus control

Compound	Reported MIC (P. aeruginosa)	Bacterial count (CFU/mL) versus control (no chelator) [1]	also measured
Gentamicin sulfate	24 µg/mL		
O=C(O)CN(CCN(CC(=O)O)Cc1ccccc1O)Cc1ccccc1O [HBED, N,N-bis (2-hydroxybenzyl) ethylenediamine-N,N-diacetic acid]		small, transient difference	
CC(=O)N(O)CCCCCNC(=O)CCC(=O)N(O)CCCCCNC(=O)CCC(=O)N(O)CCCCCN [DFO, deferoxamine]			Plasma half-life [2]: ~5.5 min
sodium ethylene diamine tetraacetate [EDTA]		small, transient difference	
O=C(O)c1cn(C2CC2)c2cc(N3CCNCC3)c(F)cc2c1=O [Ciprofloxacin, Ciprofloxacin hydrochloride]	1 µg/mL		Overall reduction in CFU/mL [3]: approximately 4 log units
